Test system: T1, PIM-1 or PIM-2
T1 construct: fused on or other part: C-terminal histidine tag (PIM-1 enzyme); N-terminal histidine tag (PIM-2 enzyme)
Assay: PIM-1 / PIM-2 biochemical assay (ADP Hunter assay kit)
Design: species or system human
Details: tested in either the PIM-1 or the PIM-2 biochemical assay (as appropriate); ATP 100 μM
Description: The biochemical assay to measure PIM-1 activity relies on the ADP Hunter assay kit (DiscoveRx Corp., Cat. # 90-0077), that determines the amount of ADP as direct product of the kinase enzyme activity.
The enzyme has been expressed and purified in-house as a recombinant human protein with a C-terminal histidine tag. The protein is active and stable.
(§1) Assay conditions were as indicated by the kit manufacturers with the following adaptations for the kinase activity step: • Kinase assay buffer and assay volume stay as recommended (15 mM HEPES, pH 7.4, 20 mM NaCl, 1 mM EGTA, 0.02% Tween 20, 10 mM MgCl2 and 0.1 mg/ml bovine γ-globulins/75 μl assay volume) • Incubation time and temperature: 60 min at 30° C. • PIM-1 concentration: 50 pg/μl • ATP concentration: 100 μM • PIM-1 substrate peptide: PIMtide (ARKRRRHPSGPPTA) • Peptide concentration: 60 μM • Positive control for kinase activity inhibition: 1-10 μM Staurosporine • DMSO concentration have to stay below 2% during the kinase reaction
Assays were performed in either 96 or 384-well plates. The final outcome of the coupled reactions provided by the kit is the release of the fluorescent product Resorufin and has been measured with a multilabel HTS counter VICTOR V (PerkinElmer) using an excitation filter at 544 nm and an emission filter at 580 nm.
The biochemical assay to measure PIM-2 activity relies on the ADP Hunter assay kit (DiscoveRx Corp., Cat. # 90-0077), that determines the amount of ADP as direct product of the kinase enzyme activity.
The enzyme has been expressed and purified in-house as a recombinant human protein with a N-terminal histidine tag. The protein is active and stable.
as §1, with “mg/ml bovine γ-globulins/20 μl assay” for “mg/ml bovine γ-globulins/75 μl assay”, “and temperature: 30 min at” for “and temperature: 60 min at”, “C. • PIM-2 concentration: 350” for “C. • PIM-1 concentration: 50”, “PIM-2 concentration: 350 pg/μl •” for “PIM-1 concentration: 50 pg/μl •”, “Peptide concentration: 100 μM •” for “Peptide concentration: 60 μM •”

In order of falling IC50:
1. Clc1ccc(CNc2ccc3ncc(CN4CCOCC4)n3n2)cc1Cl [Example 53, (3,4-Dichloro-benzyl)-(3-morpholin-4-ylmethyl-imidazo[1,2-b]pyridazin-6-yl)-amine]  33000 nM
2. COc1ccc(CNc2cc(C)c3ncc(C(=O)Nc4cccc(C(=O)O)c4)n3n2)cc1 [Example 65, 3-{[6-(4-Methoxy-benzylamino)-8-methyl-imidazo[1,2-b]pyridazine-3-carbonyl]-amino}-benzoic acid]  19300 nM
3. COc1ccc(C(=O)Nc2cnc3ccc(-n4ccnc4)nn23)cc1 [Example 100, N-(6-Imidazol-1-yl-imidazo[1,2-b]pyridazin-3-yl)-4-methoxy-benzamide]  19100 nM
4. CCC(=O)Nc1cnc2ccc(NCc3ccc(F)cc3)nn12 [Example 89, N-[6-(4-Fluoro-benzylamino)-imidazo[1,2-b]pyridazin-3-yl]-propionamide]  19000 nM
5. CCS(=O)(=O)Nc1cnc2ccc(-c3ccccc3)nn12 [Example 85, Ethanesulfonic acid (6-phenyl-imidazo[1,2-b]pyridazin-3-yl)-amide]  17400 nM
6. O=S(=O)(Nc1cnc2ccc(-c3ccccc3)nn12)c1ccccc1 [Example 86, N-(6-Phenyl-imidazo[1,2-b]pyridazin-3-yl)-benzenesulfonamide]  14500 nM
7. O=C(Nc1cnc2ccc(-n3ccnc3)nn12)c1ccc(O)cc1 [Example 103, 4-Hydroxy-N-(6-imidazol-1-yl-imidazo[1,2-b]pyridazin-3-yl)-benzamide]  14400 nM
8. COc1ccc(CNc2ccc3nc(C)c(C(=O)Nc4ccccc4)n3n2)cc1 [Example 81, 6-(4-Methoxy-benzylamino)-2-methyl-imidazo[1,2-b]pyridazine-3-carboxylic acid phenylamide]  8870 nM
9. O=C(Nc1cnc2ccc(-c3ccccc3)nn12)c1ccccc1 [Example 84, N-(6-Phenyl-imidazo[1,2-b]pyridazin-3-yl)-benzamide]  5230 nM
10. Cc1cc(NCc2ccc(Cl)c(Cl)c2)nn2c(C#Cc3ccccc3)cnc12 [Example 71, (3,4-Dichloro-benzyl)-(8-methyl-3-phenylethynyl-imidazo[1,2-b]pyridazin-6-yl)-amine]  5190 nM
11. O=C(Nc1cnc2ccc(Oc3ccccc3)nn12)c1ccccc1 [Example 98, N-(6-Phenoxy-imidazo[1,2-b]pyridazin-3-yl)-benzamide]  4650 nM
12. Cc1nc2ccc(NCc3ccc(F)cc3)nn2c1C(=O)Nc1ccccc1 [Example 80, 6-(4-Fluoro-benzylamino)-2-methyl-imidazo[1,2-b]pyridazine-3-carboxylic acid phenylamide]  4550 nM
13. CNC(=O)c1cccc(NC(=O)c2cnc3c(C)cc(NCc4ccc(OC)cc4)nn23)c1 [Example 66, 6-(4-Methoxy-benzylamino)-8-methyl-imidazo[1,2-b]pyridazine-3-carboxylic acid (3-methylcarbamoyl-phenyl)-amide]  3130 nM
14. Clc1ccc(CNc2ccc3ncc(C#CCc4ccccc4)n3n2)cc1Cl [Example 73, N-(3,4-dichlorobenzyl)-3-(3-phenylprop-1-ynyl)imidazo[1,2-b]pyridazin-6-amine]  2850 nM
15. O=C(Nc1cnc2ccc(NCc3ccc(F)cc3)nn12)c1cccc(O)c1 [Example 102, N-[6-(4-Fluoro-benzylamino)-imidazo[1,2-b]pyridazin-3-yl]-3-hydroxy-benzamide]  2250 nM
16. Cc1cc2ncc(C#Cc3ccccc3)n2nc1NCc1ccc(Cl)c(Cl)c1 [Example 70, (3,4-Dichloro-benzyl)-(7-methyl-3-phenylethynyl-imidazo[1,2-b]pyridazin-6-yl)-amine]  2220 nM
17. O=C(Nc1cnc2ccc(NCc3ccc(F)cc3)nn12)c1ccccc1 [Example 90, N-[6-(4-Fluoro-benzylamino)-imidazo[1,2-b]pyridazin-3-yl]-benzamide]  1150 nM
18. O=C(Nc1ccccc1)c1cnc2ccc(-c3ccccc3)nn12 [Example 45, 6-Phenyl-imidazo[1,2-b]pyridazine-3-carboxylic acid phenylamide]  490 nM
19. O=C(Nc1ccccc1)c1cnc2ccc(-c3ccoc3)nn12 [Example 47, 6-Furan-3-yl-imidazo[1,2-b]pyridazine-3-carboxylic acid phenylamide]  470 nM
20. O=C(Nc1cnc2ccc(NCc3ccc(F)cc3)nn12)c1ccc(O)cc1 [Example 101, N-[6-(4-Fluoro-benzylamino)-imidazo[1,2-b]pyridazin-3-yl]-4-hydroxy-benzamide]  410 nM
21. COc1ccc(-c2ccc3ncc(C(=O)Nc4ccccc4)n3n2)cc1 [Example 46, 6-(4-Methoxy-phenyl)-imidazo[1,2-b]pyridazine-3-carboxylic acid phenyl-amide]  380 nM
22. COc1ccc(C(=O)Nc2cnc3ccc(NCc4ccc(F)cc4)nn23)cc1 [Example 91, N-[6-(4-Fluoro-benzylamino)-imidazo[1,2-b]pyridazin-3-yl]-4-methoxy-benzamide]  310 nM
23. Cc1cc2ncc(C(=O)Nc3ccccc3)n2nc1NCc1ccco1 [Example 58, 6-[(Furan-2-ylmethyl)-amino]-7-methyl-imidazo[1,2-b]pyridazine-3-carboxylic acid phenylamide]  300 nM
24. COc1ccc(CNc2nn3c(C(=O)Nc4ccccc4)cnc3cc2C2CCCC2)cc1 [Example 69, 7-Cyclopentyl-6-(4-methoxy-benzylamino)-imidazo[1,2-b]pyridazine-3-carboxylic acid phenylamide]  190 nM
25. O=C(Nc1ccccc1)c1cnc2ccc(N3Cc4ccccc4C3)nn12 [Example 44, 6-(1,3-Dihydro-isoindol-2-yl)-imidazo[1,2-b]pyridazine-3-carboxylic acid phenylamide]  180 nM
26. CCOC(=O)c1cccc(NC(=O)c2cnc3c(C)cc(NCc4ccc(OC)cc4)nn23)c1 [Example 64, 3-{[6-(4-Methoxy-benzylamino)-8-methyl-imidazo[1,2-b]pyridazine-3-carbonyl]-amino}-benzoic acid ethyl ester]  160 nM
27. O=C(Nc1ccccc1)c1cnc2cc(C3CCCC3)c(NCc3ccc(F)cc3)nn12 [Example 68, 7-Cyclopentyl-6-(4-fluoro-benzylamino)-imidazo[1,2-b]pyridazine-3-carboxylic acid phenylamide]  80 nM
28. Cc1cc(NCc2ccc(Cl)c(Cl)c2)nn2c(C(=O)Nc3ccccc3)cnc12 [Example 54, 6-(3,4-Dichloro-benzylamino)-8-methyl-imidazo[1,2-b]pyridazine-3-carboxylic acid phenylamide]  70 nM
29. Cc1cc2ncc(C(=O)Nc3ccccc3)n2nc1NCc1ccc(Cl)c(Cl)c1 [Example 55, 6-(3,4-Dichloro-benzylamino)-7-methyl-imidazo[1,2-b]pyridazine-3-carboxylic acid phenylamide]  70 nM
30. O=C(Nc1ccccc1)c1cnc2ccc(Nc3cccnc3)nn12 [Example 41, 6-(Pyridin-3-ylamino)-imidazo[1,2-b]pyridazine-3-carboxylic acid phenyl-amide]  60 nM
31. CN(Cc1ccc(Cl)c(Cl)c1)c1ccc2ncc(C(=O)Nc3ccccc3)n2n1 [Example 42, 6-[(3,4-Dichloro-benzyl)-methyl-amino]-imidazo[1,2-b]pyridazine-3-carboxylic acid phenylamide]  60 nM
32. Cc1ccc(CNc2nn3c(C(=O)Nc4ccccc4)cnc3cc2C)cc1F [Example 60, 6-(3-Fluoro-4-methyl-benzylamino)-7-methyl-imidazo[1,2-b]pyridazine-3-carboxylic acid phenylamide]  60 nM
33. Cc1cc2ncc(C(=O)Nc3ccccc3)n2nc1NCc1cccc(F)c1 [Example 61, 6-(3-Fluoro-benzylamino)-7-methyl-imidazo[1,2-b]pyridazine-3-carboxylic acid phenylamide]  60 nM
34. O=C(Nc1ccccc1)c1cnc2ccc(Nc3ccccc3)nn12 [Example 39, 6-Phenylamino-imidazo[1,2-b]pyridazine-3-carboxylic acid phenylamide]  40 nM

From US20110046127A1, “Imidazopyridazines for Use as Protein Kinase Inhibitors” (priority 2007, published 2011)
